Measured values as given in patent US5198441A, “Derivatives of 1,2-dihydro 2-oxo quinoxalines, their preparation and their use in therapy” (Pierre Fabre Medicament, priority 1989, dated 1993).
In brackets after ≈: the same amount, converted by molar mass.

Assays:
[1] = test system: trachea contractions caused by leucotriene D4; experiment: Antagonism of the effect of leucotriene D4 (contraction of isolated guinea pig trachea); conditions: Cavia porcellus, 5 min, leucotriene D4 potassium salt 0.05 μg/ml, 5 minutes contact; for inhibition at 10 µg/mL: 10 μg/ml, percentage variation in the amplitude of the contraction
Description: (§1) The compounds of the invention were subjected to pharmacological tests which have shown their interest as broncholytics. For this purpose, the compounds were studied for their effect against contractions caused by various products in accordance with the following protocol.
(§2) A piece of the trachea of a male tri-color guinea pig of an average weight of 400 g is cut in a spiral and mounted (about 2.5 cm) in an isolated organ cell maintained thermostatically at 37° C. and filled with oxygenated tyrode. The isometric contractions caused by the different mediators are recorded by means of a Gould Statham UC2 detector (Gould Inc. Oxnard, Calif., USA) or UF1 Palmer Bioscience detector connected to a potentiometric recorder (Linseiss, Selb, Federal Republic of Germany). At the start of the experiment, the piece of trachea was placed under a tension of 1 g and set aside for one hour.
(§3) The following mediator concentrations are used (concentrations generally causing maximum contraction): histamine dihydrochloride, 10 μg/ml; acetylcholine chloride, 1 μg/ml; potassium salt of leucotrine D4, 0.05 μg/ml; potassium chloride, 1850 μg/ml. The concentrations of agents used produce contractions which become maximum within 5 to 15 minutes, depending on the mediators, and then remain at that level. One concentration of the product studied is administered for each contraction,and the product is left in contact with the trachea for 5 minutes. The inhibition, if any, obtained at the end of this time is measured (percentage variation in the amplitude of the contraction). The trachea is then washed for 15 seconds and set aside for about 10 minutes (time necessary to return to the base tone) before causing a new contraction.
(§4) The water-insoluble products are diluted in 0.178% (v/v) (final concentration in the bath) of dimethyl sulfoxide (DMSO).
(§5) The 50% inhibitory concentrations (IC 50) are calculated using an SAS program (Statistical Analysis System) based on Bliss and Cattel (Bliss C.I. and Cattel McK. Biological Assay Ann. Rev. Physiol. 5, 479, 1943).

[2] = test system: trachea contractions caused by potassium chloride; experiment: Antagonism of the effect of potassium chloride (contraction of isolated guinea pig trachea); conditions: Cavia porcellus, 5 min; potassium chloride 1850 μg/ml; 5 minutes contact; 37° C.
Description: as §1, §2, §3, §4, §5

[3] = test system: trachea contractions caused by histamine; experiment: Antagonism of the effect of histamine (contraction of isolated guinea pig trachea); conditions: Cavia porcellus, 5 min; histamine dihydrochloride 10 μg/ml; 5 minutes contact; 37° C.
Description: as §1, §2, §3, §4, §5

[4] = test system: trachea contractions caused by acetylcholine; experiment: Antagonism of the effect of acetylcholine (contraction of isolated guinea pig trachea); conditions: Cavia porcellus, 5 min; acetylcholine chloride 1 μg/ml; 5 minutes contact; 37° C.
Description: as §1, §2, §3, §4, §5

IC50 [2] [µg/mL] | IC50 [3] [µg/mL] | IC50 [4] [µg/mL] | Structure (SMILES) | inhibition at 10 µg/mL [1] [%] | IC50 ([1]; 37° C.) [µg/mL]
5.6 (≈ 20.6 µM) | 0.9 (≈ 3.3 µM) | 25.5 (≈ 93.6 µM) | CC(C)=CCn1c(=O)c(CCCO)nc2ccccc21 [Compound 1, 1-prenyl 3-(3-hydroxypropyl) 1,2-dihydro 2-oxo quinoxaline] | -71 | 
 | 3.3 (≈ 10.9 µM) | 7.1 (≈ 23.4 µM) | CCCn1c(=O)c(CCCOC(=O)NC)nc2ccccc21 [Compound 3, 1-propyl 3-(3-methylcarbamoyloxypropyl) 1,2-dihydro 2-oxo quinoxaline] |  | 
17 (≈ 61 µM) |  |  | C=CCn1c(=O)c(CCCO)nc2ccc(Cl)cc21 [Compound 5] |  | 
12.3 (≈ 50.3 µM) |  |  | C=CCn1c(=O)c(CCCO)nc2ccccc21 [Compound 8] |  | 
 | 3.45 (≈ 14 µM) |  | CCCn1c(=O)c(CCCO)nc2ccccc21 [Compound 11] |  | 
6.2 (≈ 24 µM) | 0.54 (≈ 2.09 µM) | 15.5 (≈ 60 µM) | CC=CCn1c(=O)c(CCCO)nc2ccccc21 [Compound 12] | -71 | 
 |  |  | O=c1c(CCCO)nc2ccccc2n1CC1CC1 [Compound 15] | -64 | 
 | 0.43 (≈ 1.46 µM) |  | O=c1c(CCCO)nc2ccccc2n1Cc1ccccc1 [Compound 17] |  | 
 | 1.13 (≈ 4.15 µM) | 16.5 (≈ 60.6 µM) | CC=CCn1c(=O)c(CCC(C)O)nc2ccccc21 (stereo not drawn) [Compound 19] |  | 
 | 1.55 (≈ 5.41 µM) | 9.7 (≈ 33.9 µM) | CC(C)=CCn1c(=O)c(CCC(C)O)nc2ccccc21 (stereo not drawn) [Compound 20] |  | 
 | 1.3 (≈ 3.84 µM) |  | COc1ccc(Cn2c(=O)c(CCC(C)O)nc3ccccc32)cc1 (stereo not drawn) [Compound 24] |  | 

Structure (SMILES) | IC50 [2] [µg/mL] | IC50 [3] [µg/mL] | IC50 [4] [µg/mL] | inhibition at 10 µg/mL [1] [%] | IC50 ([1]; 37° C.) [µg/mL]
Cn1c(=O)c2[nH]cnc2n(C)c1=O [theophylline, reference compound] | 21 (≈ 117 µM) | 11.5 (≈ 63.8 µM) | 65 (≈ 361 µM) |  | 13.5
